Patent US8885174B2, “Monitoring energy and matter fluxes by use of electromagnetic radiations” (priority 2009, dated 2014)
“Also recorded” adds a separate entry of the source. Where two headings read alike, the source gives them in different places.

Tests used:
HEKnorm = test: DHM phase signal recording on non-transfected HEK cells (HEKnorm); assay type: cell-based; settings: −100 mV, GABA 3 μM, 30 s
Method: (§1) Electrophysiology recording: All cultures were perfused in an artificial cerebrospinal fluid (ACSF) containing (in mM): […] (pH 7.4; Room temperature). For some experiments performed on HEK cells, picrotoxin (30 μM, Tocris) was added to the ACSF. […] Whole-cell recordings were made, and signals were amplified by using Multiclamp 700B amplifiers (Axon Instruments, Union City, Calif.) and digitized by means of an ITC-1600 interface (Instrutech, Great Neck, N.Y.) to a PC computer running Igor Pro (Wavemetrics, Portland, Oreg.). All currents (sampling interval, 5 kHz) were low-pass filtered (2 kHz). They were recorded with pipettes containing 95 mM potassium-gluconate, 40 mM KCl, 10 mM Hepes, 2 mM MgCl2 (pH 7.3). For some experiments, 95 mM potassium-gluconate was substituted with 95 mM KCl to reach a final concentration of [Cl^−]intrapip, to 139 mM. The pipettes were pulled with a DMZ universal puller.
Imaging: Holograms are acquired with a DHMT 1000 (Lyncée Tech SA, PSE-EPFL). […] The object wave diffracted by the specimen is collected by a microscope objective and interferes with a reference beam to produce the hologram recorded by the CCD camera. […] The reconstruction algorithm provides simultaneous amplitude and quantitative phase images of the cells (Koala software).

[1] = system: cortical neurons in primary culture; test: DHM multisite phase recording on unpatched cortical neurons in primary culture; assay type: cell-based, mice; settings: GABA 100 μM, 30 s
Method: Neuronal cell cultures: Primary cultures of cortical neurons were prepared from E17 OF1 mice embryos. Briefly, embryos were decapitated and brains removed and placed in PBS-glucose. Cortex was removed under a dissecting microscope and collected in a small Petri dish in PBS-glucose. Cell dissociation was obtained by gentle trituration with a fire-polished Pasteur pipette in Neurobasal medium supplemented with B27 and GlutaMAX (Invitrogen). Cells were plated at an average density of 15000 cells/cm^2 in supplemented Neurobasal medium on poly-ornithine coated glass coverslips (20 mm Ø). After 3-4 h, coverslips were transferred to dishes containing glial cell monolayers in supplemented Neurobasal medium. Neurons were maintained at 37° C. in a humidified atmosphere of 95% air/5% CO2 and were used after 21-35 days in vitro (DIV).
Imaging: Holograms are acquired with a DHMT 1000 (Lyncée Tech SA, PSE-EPFL). A laser diode produces the coherent light (λ=683 nm) which is divided by a beam splitter into a reference wave and an object wave. The object wave diffracted by the specimen is collected by a microscope objective and interferes with a reference beam to produce the hologram recorded by the CCD camera. Frequency of hologram acquisition is 0.2 Hz. Reconstruction of the original image from the hologram is numerically achieved by a computer. The reconstruction algorithm provides simultaneous amplitude and quantitative phase images of the cells (Koala software). It is important to note that an extensive quality control of the DHM technique has been published by Rappaz et al “Comparative study of human erythrocytes by digital holographic microscopy, confocal microscopy, and impedance volume analyzer” Cytom Part A 73A, 895-903 (2008).
Neurons also presented heterogeneous phase responses.

[2] = molecular target: T1, rat GABAA α1β2γ2s receptor expressed in HEK 293 cells (HEKGABA) (Rattus norvegicus, UniProt P18508+P62813+P63138); test: Whole-cell electrophysiology recording of GABAA current (IGABA, I/V curve) on HEKGABA cells; assay type: cell-based; settings: GABA 3 μM or muscimol 1 μM, 30 s
Excerpt: HEKGABA cells: HEK 293 cells stably expressing configurations of rat GABAA receptors (HEKGABA) were generously given by Hoffmann-LaRoche (Basel, Switzerland). Briefly, cDNAs encoding rat GABAA α1, β2 and γ2s subunits were subcloned into the expression vectors pIRESpuro2, pIRESneo2 and pIREShygro2 vectors (Clontech, Mountain View, Calif.), respectively. The pIRES/GABAA α1, β2, γ2s, constructs were sequenced to confirm their nucleotide sequence and then cotransfected into HEK 293 cells at a ratio of 1:1:2 (plasmid mass ratio) using the lipofectamine 2000 kit according to the manufacturer's instructions (Invitrogen, Carlsbad, Calif., USA). […] Cell colonies were isolated and expression of the GABAA α1β2γ2s receptor was determined by [^3H] flumazenil binding.
Electrophysiology recording: All cultures were perfused in an artificial cerebrospinal fluid (ACSF) containing (in mM): NaCl 150, KCl 3, D-glucose, 10 HEPES 10, CaCl2 3, and mM MgCl2. […] They were recorded with pipettes containing 95 mM potassium-gluconate, 40 mM KCl, 10 mM Hepes, 2 mM MgCl2 (pH 7.3). […]
Offline analysis: The electrophysiological and optical recordings were analysed by using MATLAB 7.6 (Mathworks Software, Natick, Mass.) and all curves have been fitted by using ORIGIN 7.5 (Microcal Software, Northampton, Mass.). […]

[3] = molecular target: T1, rat GABAA α1β2γ2s receptor expressed in HEK 293 cells (HEKGABA); assay type: cell-based; settings: −100 mV, picrotoxin 30 μM; for effect on phase signal in HEKGABA (in words): GABA 3 μM, muscimol 1 μM, 30 s
Excerpt: HEKGABA cells: HEK 293 cells stably expressing configurations of rat GABAA receptors (HEKGABA) were generously given by Hoffmann-LaRoche (Basel, Switzerland). Briefly, cDNAs encoding rat GABAA α1, β2 and γ2s subunits were subcloned into the expression vectors pIRESpuro2, pIRESneo2 and pIREShygro2 vectors (Clontech, Mountain View, Calif.), respectively. The pIRES/GABAA α1, β2, γ2s, constructs were sequenced to confirm their nucleotide sequence and then cotransfected into HEK 293 cells at a ratio of 1:1:2 (plasmid mass ratio) using the lipofectamine 2000 kit according to the manufacturer's instructions (Invitrogen, Carlsbad, Calif., USA). Transfected cells were grown in minimal essential medium (Invitrogen) supplemented with 10% fetal calf serum (Invitrogen), 20 mM HEPES (Invitrogen) and 100 U/ml penicillin/100 μg/ml streptomycin (Invitrogen) for 48 hours and then, the cells were transferred to the selection medium containing 0.3 μg/ml puromycin (Clontech, Mountain View, Calif., USA), 300 μg/ml hygromycin B (Roche Diagnostics, Mannheim, Germany) and 200 μg/ml G418 (Invitrogen) for the generation of stable cell lines. Cell colonies were isolated and expression of the GABAA α1β2γ2s receptor was determined by [^3H] flumazenil binding.
as §1
Imaging: Holograms are acquired with a DHMT 1000 (Lyncée Tech SA, PSE-EPFL). A laser diode produces the coherent light (λ=683 nm) which is divided by a beam splitter into a reference wave and an object wave. The object wave diffracted by the specimen is collected by a microscope objective and interferes with a reference beam to produce the hologram recorded by the CCD camera. Frequency of hologram acquisition is 0.2 Hz. Reconstruction of the original image from the hologram is numerically achieved by a computer. The reconstruction algorithm provides simultaneous amplitude and quantitative phase images of the cells (Koala software).
Offline analysis: The electrophysiological and optical recordings were analysed by using MATLAB 7.6 (Mathworks Software, Natick, Mass.) and all curves have been fitted by using ORIGIN 7.5 (Microcal Software, Northampton, Mass.). […] All data are presented as means±SEM. Student's t-test (paired or unpaired) to determine statistical significance (p<0.05).

T1 sequence (P63138 25-474): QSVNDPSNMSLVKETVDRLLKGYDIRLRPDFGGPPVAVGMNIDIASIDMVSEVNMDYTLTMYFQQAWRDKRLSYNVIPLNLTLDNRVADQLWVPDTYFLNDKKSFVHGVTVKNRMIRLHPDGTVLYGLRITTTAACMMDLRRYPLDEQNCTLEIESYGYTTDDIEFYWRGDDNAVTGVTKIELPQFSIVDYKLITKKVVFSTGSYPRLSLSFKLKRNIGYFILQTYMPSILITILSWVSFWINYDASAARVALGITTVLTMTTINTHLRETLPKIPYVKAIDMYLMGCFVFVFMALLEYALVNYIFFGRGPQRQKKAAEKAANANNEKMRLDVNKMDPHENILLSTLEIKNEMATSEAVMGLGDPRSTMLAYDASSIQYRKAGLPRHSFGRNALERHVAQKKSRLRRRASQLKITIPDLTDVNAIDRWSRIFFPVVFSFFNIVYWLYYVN
T1 sequence (P18508 39-466): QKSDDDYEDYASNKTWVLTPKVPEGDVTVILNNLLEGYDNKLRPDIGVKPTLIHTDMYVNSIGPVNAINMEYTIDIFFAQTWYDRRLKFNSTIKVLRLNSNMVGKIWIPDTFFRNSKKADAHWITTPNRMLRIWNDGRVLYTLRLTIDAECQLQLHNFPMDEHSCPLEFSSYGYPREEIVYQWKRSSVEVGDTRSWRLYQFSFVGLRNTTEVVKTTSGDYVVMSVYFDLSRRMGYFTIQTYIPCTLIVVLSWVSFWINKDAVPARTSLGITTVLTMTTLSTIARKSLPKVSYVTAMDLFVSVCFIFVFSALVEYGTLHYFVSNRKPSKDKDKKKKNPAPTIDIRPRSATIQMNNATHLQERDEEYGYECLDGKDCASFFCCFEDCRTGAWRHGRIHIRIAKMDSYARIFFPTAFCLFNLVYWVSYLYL
T1 sequence (P62813 28-455): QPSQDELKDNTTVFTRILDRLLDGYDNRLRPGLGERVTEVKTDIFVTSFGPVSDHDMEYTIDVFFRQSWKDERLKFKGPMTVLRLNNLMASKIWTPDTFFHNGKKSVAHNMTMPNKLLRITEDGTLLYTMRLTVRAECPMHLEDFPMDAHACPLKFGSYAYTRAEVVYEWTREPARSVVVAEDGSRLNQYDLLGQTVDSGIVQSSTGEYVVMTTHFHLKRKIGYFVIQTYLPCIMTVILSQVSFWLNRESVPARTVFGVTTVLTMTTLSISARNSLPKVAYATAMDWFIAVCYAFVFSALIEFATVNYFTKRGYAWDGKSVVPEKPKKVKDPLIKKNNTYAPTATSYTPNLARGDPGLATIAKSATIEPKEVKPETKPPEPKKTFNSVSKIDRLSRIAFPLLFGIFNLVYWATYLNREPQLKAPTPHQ

| Molecule | effect on phase signal in HEKnorm (in words) (HEKnorm) | Δφ phase signal in HEKnorm (HEKnorm) | phase response, neurons with increase of phase signal ([1]; 3 of 46 cells) | phase response, neurons with decrease of phase signal ([1]; 13 of 46 cells) | phase response, neurons with modest or no detectable signal ([1]; 30 of 46 cells) | reversal potential for Cl− (ECl) from I/V curve ([2]; [Cl−]intrapip 40 mM (44 mM elsewhere in the source)) | reversal potential for Cl− (ECl) from I/V curve ([2]; [Cl−]intrapip 139 mM) | effect on phase signal in HEKGABA (in words) [3] | effect on phase signal in HEKGABA (in words) ([3]; listed as Muscimol) | change of phase response evoked by GABA in presence of antagonist ([3]; GABA 3 μM 30 s) | effect on phase signal in HEKGABA (in words) ([3]; listed as Picrotoxin) |
| --- | --- | --- | --- | --- | --- | --- | --- | --- | --- | --- | --- |
| NCCCC(=O)O [GABA] | no effect; also recorded: ineffective | 0.33±0.55 ° | 1.16+/−0.47 ° | −2.55+/−0.29 ° | −0.16+/−0.2 ° | – | – | – | – | – | – |
| NCc1cc(=O)[nH]o1 [muscimol, Muscimol] | – | – | – | – | – | −27 mV | −4 mV | mimicked the effect of GABA | mimicked | – | – |
| picrotoxin | – | – | – | – | – | – | – | reduces the phase shift | – | −82±17% | blocked |
